Data as given in patent US20190352276A1, “INHIBITORS OF BRUTON'S TYROSINE KINASE” (Joint Stock Company "Biocad", priority 2016, published 2019).

Experiments:
[1] = biological target: T1, recombinant Btk kinase enzyme (Homo sapiens, UniProt Q06187); experiment: In vitro inhibition of Btk kinase activity (ADP-Glo); format: biochemical; conditions: Table 8; ADP-Glo; read-out: IC50 kinase BTK
T1 construct: purchased SignalChem B10-10H
Procedure: To assess Btk kinase activity described herein, SignalChem kinase system was used. Btk kinase activity was determined in the reaction between recombinant Btk kinase enzyme (SignalChem #B10-10H) and Poly (4:1 Glu, Tyr) peptide substrate in the presence of the inhibitor.
Staurosporine (Abcam Biochemicals, ab146588) was used as a reference inhibitor and 0.1% DMSO in the reaction buffer—as a negative control. The solution of 0.5 mg/mL peptide substrate and 50 &M ATP in the same buffer were added; the solution was incubated for 180 minutes at 37° C. To detect the amount of ATP taken up during the kinase reaction, the equivalent amount of ADP (from the ADP Glo Detection Kit (Promega, #V9101)) was used according to the protocol. The reaction mixture was equilibrated to room temperature. 25 µL of ADP-Glo Reagent were added into each well; the plate was incubated for 40 minutes. 50 μL of Kinase Detection Reagent were added; the plate was incubated for 30 minutes. The luminescence was measured with multimode plate reader (Tecan Infinite M200Pro, Switzerland). IC50 values were calculated using Magellan 7.2 software (Tecan, Switzerland) approximating experimental points by four-parameter logistic model with the optimization by Levenberg-Marquardt.

[2] = Stability in human blood plasma; conditions: 10 μM in pooled human blood plasma, incubated 4 hours at 37° C.
[3] = General cytotoxicity on HepG2 cells (CC50; therapeutic index CC50 HepG2/IC50 Mino); format: cell-based; conditions: human, HepG2 cells (hepatocellular carcinoma); Table 10; 72 hours, Alamar Blue; average of several tests
In short: (§1)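 Alamar Blue viability after 72 h exposure to compounds (final 200 μM–4 μM) gave CC50; HepG2 plated 2*10^4/well in DMEM 24 h beforehand. Therapeutic index expressed as ratio of HepG2 CC50 to Mino antiproliferative IC50.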

[4] = test system: HepG2 cells (hepatocellular carcinoma); experiment: as above; format: cell-based; conditions: Table 10; therapeutic index
In short: as §1

[5] = test system: Z-138 (mantle cell lymphoma); experiment: Antiproliferative activity, Z-138 cells (Alamar Blue); format: cell-based; conditions: Homo sapiens, Table 10, 72 h, average of several tests
In short: (§2)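 A 72 h growth-inhibition assay using Alamar Blue fluorescence as the viability readout, with IC50 taken from a four-parameter logistic curve.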

[6] = Permeability through the monolayer of Caco-2 cells; format: in vitro ADME; conditions: human; for Papp A→B at 2 h, 10 μM / Papp B→A at 2 h, 10 μM: 2 h at 37° C.; for efflux ratio at 2 h, 10 μM: read-out: efflux (Papp B-A/Papp A-B)
From the text: Assessment of permeability through the monolayer of Caco-2 cells allows to evaluate the ability of the candidate compounds to penetrate through biological membranes by active and passive transport.
Caco-2, the cells of the intestinal epithelium, had been cultured in transwell plate inserts with the filters (with pores of 0.4 μm, BD Falcon with High Density, #353495) for 21 days, and then the integrity of the monolayer were estimated with Lucifer Yellow dye (Sigma-Aldrich, USA) by standard protocol. When setting the A→B transfer, solutions of test substances were added in a buffer with pH 6.5 (Hanks solution, 10 mM HEPES, 15 mM glucose solution) with the concentration of 10 μM into the upper chamber; the lower chamber was filled with a buffer with pH 7.4 (Hanks solution, 10 mM HEPES, 15 mM glucose solution, 1% BSA). When setting B→A transfer, the upper chamber was filled with the buffer with pH 6.5, and solutions of the test substances were added in the buffer with pH 7.4 at the concentration of 10 μM in the lower chamber. Propranolol was used as a control substance (as it has high permeability).
We used gradient elution (1 mL/min flow rate). We determined the areas of peaks corresponding to the compounds. On the basis of peak areas in the calibration standards we determined the concentration of compound in the initial solution and in the samples from the wells of the upper and lower chambers.
Papp, permeability through the cell layer, was calculated using the following formula:
Papp=(C(t)*V)/(C(0)*t*Area), where
Papp is the effective constant of permeability, m/s V is the volume of solution (0.8 ml in A→B test, 0.2 ml in B→A test), ml Area is the surface area of the membrane (0.33 cm^2), cm^2 t is the time of incubation (7200 sec), sec C(0) is the concentration of the initial solution, μM C(t) is the concentration of the solution after 2 hours (the concentration in the sample from the well of the lower chamber in A→B test; the concentration in the sample from the well of the top chamber in B→A test), μM
The value was calculated with the following formula:
efflux=Papp B-A/Papp A-B, where
Papp A-B is the value of the permeability in the direct test (A→B); Papp B-A is the value of the permeability in the backward test in (B→A).

[7] = test system: DOHH2 (follicular lymphoma); experiment: Antiproliferative activity, DOHH2 cells (Alamar Blue); format: cell-based; conditions: Homo sapiens, DOHH-2, Table 10, 72 h, average of several tests
Procedure: Antiproliferative activity of BTK inhibitors was measured in cell-based bioassay on B-cells cultures: Mino (mantle cell lymphoma, ATCC® CRL-3000™), Z-138 (mantle cell lymphoma, ATCC® CRL-3001™) and DOHH2 (follicular lymphoma, Creative Bioarray CSC-C0219) using cell viability reagent Alamar Blue (Invitrogen, #DAL 1100). Cells were cultured in 10% FB S-supplemented (HyClone, #SH3008803/Gibco, #16140-071) RPMI-1640 (PanEco, #S330p) for at least 1 passage after thawing, washed with PBS and passaged in 96-well culture plates (Corning, #3599) with growth medium with 10% FBS (HyClone, #SH3008803/Gibco, #16140-071) and antibiotic (50 μg/ml of gentamicin (Biolot, #1.3.16))≈3*10^4 cells in 50 μl of medium per well.
The compounds were dissolved in DMSO and diluted with the assay medium to final concentrations ranging from […]. 150 μl of each diluted compound were then added to each well (final concentration of DMSO was less than 1%) and incubated at 37° C. in an incubator under 5% of CO2 for 72 h. After incubation, 20 μl of Alamar Blue reagent (Invitrogen, #DAL1100) were added to each well. The plates were shaked on an orbital shaker (Biosan, Latvia) and then incubated for 14-16 hours at 37° C. in the incubator.
The number of living cells were estimated, measuring the fluorescence signal at the excitation wavelength (REx) of 540 nm and the emission wavelength (λEm) of 590 nm on a microplate reader (Tecan Infinite M200Pro, Switzerland).
For each compound, IC50 was calculated using Magellan 7.2 software (Tecan, Switzerland) approximating experimental points by four-parameter logistic model with the optimization by Levenberg-Marquardt.

[8] = test system: Mino (mantle cell lymphoma); experiment: Antiproliferative activity, Mino cells (Alamar Blue); format: cell-based; conditions: Homo sapiens, Table 10, 72 h, average of several tests
In short: as §2

[9] = Chemical stability in artificial gastric fluid (SGF without enzymes); conditions: 10 μM in SGF without enzymes, pH=1.4, 37° C.

T1 sequence (Q06187 whole entry): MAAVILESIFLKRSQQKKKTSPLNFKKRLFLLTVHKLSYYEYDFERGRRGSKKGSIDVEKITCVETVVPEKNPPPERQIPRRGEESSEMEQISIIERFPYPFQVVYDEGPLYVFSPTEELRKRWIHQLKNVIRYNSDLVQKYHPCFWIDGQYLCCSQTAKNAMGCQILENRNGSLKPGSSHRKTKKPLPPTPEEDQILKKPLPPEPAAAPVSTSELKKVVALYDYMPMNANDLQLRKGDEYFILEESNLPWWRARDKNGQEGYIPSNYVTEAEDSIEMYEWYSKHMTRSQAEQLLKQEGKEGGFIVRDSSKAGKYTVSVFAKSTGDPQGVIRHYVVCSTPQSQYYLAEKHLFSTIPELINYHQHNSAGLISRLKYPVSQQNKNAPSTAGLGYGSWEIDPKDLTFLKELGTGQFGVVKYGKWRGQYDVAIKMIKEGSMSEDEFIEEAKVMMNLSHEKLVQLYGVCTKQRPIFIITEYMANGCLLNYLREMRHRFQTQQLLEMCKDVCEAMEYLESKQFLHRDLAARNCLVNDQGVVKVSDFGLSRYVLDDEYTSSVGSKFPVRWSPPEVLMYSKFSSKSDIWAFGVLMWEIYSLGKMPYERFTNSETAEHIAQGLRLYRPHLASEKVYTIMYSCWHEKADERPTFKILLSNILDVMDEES

Row | SMILES | IC50 [1] [µM] | Amount of substance in the sample, % (stability in human blood plasma) [2] [%] | CC50 at 72 h [3] [µM] | CC50 (HepG2)/IC50 (Mino) [4] | IC50 [5] [µM] | Papp A→B at 2 h, 10 μM [6] [×10⁻⁶ cm/s] | Papp B→A at 2 h, 10 μM [6] [×10⁻⁶ cm/s] | efflux ratio at 2 h, 10 μM [6] | IC50 [7] [µM] | IC50 [8] [µM] | Amount of substance in the sample in % (chemical stability) [9] [%]
1 | C=CC(=O)N1CCC[C@@H](n2nc(-c3ccc(Oc4ccncc4)cc3)c3c(N)ncc(C(N)=O)c32)C1 [BCD-BTK-135, (R)-1-(1-acryloylpiperidin-3-yl)-4-amino-3-(4-(pyridin-4-yloxy)phenyl)-1H-pyrazolo[4,3-c]pyridin-7-carboxamide] | 0.00628 |  |  |  |  |  |  |  |  |  | 
2 | C=CC(=O)N1CCC[C@@H](n2nc(-c3ccc(Oc4ccncc4)cc3)c3cncc(F)c32)C1 [BCD-BTK-211, (R)-1-(3-(7-fluoro-3-(4-(pyridin-4-yloxy)phenyl)-1H-pyrazolo[4,3-c]pyridin-1-yl)piperidin-1-yl)prop-2-en-1-one] |  | 94.8 | 45.2 | 7.97 | 17.3 | 19.2 | 3.55 | 0.18 | 23 | 5.67 | 
3 | C=CC(=O)N1CCC[C@@H](n2nc(-c3ccc(Oc4cccnc4C#N)cc3)c3cncc(C#N)c32)C1 [BCD-BTK-216, (R)-1-(1-acryloylpiperidin-3-yl)-3-(4-(2-cyanopyridin-3-yloxy)phenyl)-1H-pyrazolo[4,3-c]pyridine-7-carbonitrile] |  | 80.4 | 40.1 | 18.77 | 12.1 | 29.6 | 8.72 | 0.29 | 9.52 | 2.14 | 
4 | C=CC(=O)N1CCC[C@@H](n2nc(-c3ccc(Oc4ccncc4C#N)cc3)c3cncc(F)c32)C1 [BCD-BTK-217, (R)-4-(4-(1-(1-acryloylpiperidin-3-yl)-7-fluoro-1H-pyrazolo[4,3-c]pyridin-3-yl)phenoxy)nicotinonitrile] |  | 90.8 | 40.1 | 2.31 | 13.9 | 37.3 | 18.9 | 0.51 | 16.1 | 17.4 | 
5 | C=CC(=O)N1CCC[C@@H](n2nc(-c3ccc(C(=O)Nc4cc(C(F)(F)F)ccn4)cc3)c3cncc(C#N)c32)C1 [BCD-BTK-221, 4-{7-cyano-1-[1-(prop-2-enoyl)piperidin-3-yl]-1H-pyrazolo[4,3-c]pyridin-3-yl}-N-[4-(trifluoromethyl)pyridin-2-yl]benzamide] |  | 80.5 | 5.32 | 0.51 | 4.98 |  |  |  | 3.05 | 10.5 | 91.3
6 | C=CC(=O)N1CCC[C@@H](n2nc(-c3ccc(Oc4cncc(C(N)=O)c4)cc3)c3cncc(Cl)c32)C1 [BCD-BTK-222, 5-(4-{7-chloro-1-[(3R)-1-(prop-2-enoyl)piperidin-3-yl]-1H-pyrazolo[4,3-c]pyridin-3-yl}phenoxy)pyridine-3-carboxamide] |  | 100.0 | 50.2 | 2.60 | 26.3 | 5.06 | 6.97 | 1.38 | 26.3 | 19.4 | 100
7 | C=CC(=O)N1CCC[C@@H](n2nc(-c3ccc(C(=O)Nc4ncccc4F)cc3)c3cncc(Cl)c32)C1 [BCD-BTK-226, (R)-4-(1-(1-acryloylpiperidin-3-yl)-7-chloro-1H-pyrazolo[4,3-c]pyridin-3-yl)-N-(3-fluoropyridin-2-yl)benzamide] |  | 84.5 | 19 | 3.19 | 7.24 | 12.1 | 5.5 | 0.45 | 8.05 | 5.97 | 100
8 | C=CC(=O)N1CCC[C@@H](n2nc(-c3ccc(C(=O)Nc4ccccn4)cc3)c3cncc(F)c32)C1 [BCD-BTK-243, (R)-4-(1-(1-acryloylpiperidin-3-yl)-7-fluoro-1H-pyrazolo[4,3-c]pyridin-3-yl)-N-(pyridin-2-yl)benzamide] | 0.0293 |  |  |  |  |  |  |  |  |  | 99.6
9 | CC#CC(=O)N1CCC[C@H]1Cn1nc(-c2ccc(Oc3ccncc3)cc2)c2cncc(Cl)c21 [BCD-BTK-259, (S)-1-(2-((7-chloro-3-(4-(pyridin-4-yloxy)phenyl)-1H-pyrazolo[4,3-c]pyridin-1-yl)methyl)pyrrolidin-1-yl)but-2-yn-1-one] |  | 90.7 | 47.6 | 2.91 | 27.5 |  |  |  | 17 | 16.3 | 100
10 | C=CC(=O)N1CCC[C@@H](n2nc(-c3ccc(C(=O)Nc4cc(C(F)(F)CCC)ccn4)cc3)c3cncc(C#N)c32)C1 [BCD-BTK-268, (R)-4-(1-(1-acryloylpiperidin-3-yl)-7-cyano-1H-pyrazolo[4,3-c]pyridin-3-yl)-N-(4-(1,1-difluorobutyl)pyridin-2-yl)benzamide] |  | 91.0 | > 100 | >9.69 | 78.3 |  |  |  | 26.6 | 10.3 | 99.3
